According to ChEMBL document CHEMBL5518215, “Unlocking Antibacterial Potential: Key-Site-Based Regulation of Antibacterial Spectrum of Peptides” (J Med Chem, 2024):

What was measured:
Erythrocyte = assay: Hemolytic activity in human RBC at effective concentration measured after 1 hr by microplate reader analysis; assay type: toxicity, cell-based
Acinetobacter baumannii [1] = assay: Antimicrobial activity against Acinetobacter baumannii 1.6769 assessed as absence bacterial growth measured after 18 to 24 hrs incubation by NCCLS method; assay type: functional; settings: time 18-24 hrs
[2] = Cytotoxicity against mouse RAW264.7 cells assessed as cell survival rate measured after 8 hrs by MTT assay; assay type: toxicity, cell-based
Escherichia coli [3] = assay: Antimicrobial activity against Escherichia coli 25922 assessed as bacterial killing measured after 16 hrs incubation; assay type: functional
Enterococcus faecalis [4] = assay: Antimicrobial activity against Enterococcus faecalis 29212 assessed as absence bacterial growth measured after 18 to 24 hrs incubation by NCCLS method; assay type: functional; settings: time 18-24 hrs
[5] = Antimicrobial activity against Salmonella pullorum C7913 assessed as bacterial killing measured after 16 hrs incubation; assay type: functional, Salmonella enterica subsp. enterica serovar Pullorum; settings: Salmonella enterica
Escherichia coli [6] = assay: Antimicrobial activity against Escherichia coli 25922 assessed as absence bacterial growth measured after 18 to 24 hrs incubation in presence of NH4Cl by NCCLS method; assay type: functional; settings: time 18-24 hrs
Enterococcus faecalis [7] = assay: Antimicrobial activity against Enterococcus faecalis 29212 assessed as bacterial killing measured after 16 hrs incubation; assay type: functional
Listeria monocytogenes [8] = assay: Antimicrobial activity against Listeria monocytogenes 1.10753 assessed as bacterial killing measured after 16 hrs incubation; assay type: functional
Escherichia coli [9] = assay: Antimicrobial activity against Escherichia coli 25922 assessed as absence bacterial growth measured after 18 to 24 hrs incubation in presence of FeCl3 by NCCLS method; assay type: functional; settings: time 18-24 hrs
Acinetobacter baumannii [10] = assay: Antimicrobial activity against Acinetobacter baumannii 1.6769 assessed as bacterial killing measured after 16 hrs incubation; assay type: functional
Escherichia coli [11] = assay: Antimicrobial activity against Escherichia coli 25922 assessed as absence bacterial growth measured after 18 to 24 hrs incubation in presence of 12.5% serum by NCCLS method; assay type: functional; settings: time 18-24 hrs
Pseudomonas aeruginosa [12] = assay: Antimicrobial activity against Pseudomonas aeruginosa 27853 assessed as absence bacterial growth measured after 18 to 24 hrs incubation by NCCLS method; assay type: functional; settings: time 18-24 hrs
[13] = Cytotoxicity against human HEK-293T cells assessed as cell survival rate at 64 uM measured after 8 hrs by MTT assay relative to control; assay type: toxicity, cell-based; settings: read-out: Activity
Staphylococcus aureus [14] = assay: Antimicrobial activity against Staphylococcus aureus 29213 assessed as absence bacterial growth measured after 18 to 24 hrs incubation by NCCLS m; assay type: functional; settings: time 18-24 hrs
Salmonella typhimurium [15] = assay: Antimicrobial activity against Salmonella typhimurium 14028 assessed as bacterial killing measured after 16 hrs incubation; assay type: functional, Salmonella enterica subsp. enterica serovar Typhimurium; settings: Salmonella enterica
[16] = test system: Staphylococcus epidermidis; assay: Antimicrobial activity against Staphylococcus epidermidis 12228 assessed as absence bacterial growth measured after 18 to 24 hrs incubation by NCCLS method; assay type: functional; settings: time 18-24 hrs
[17] = Cytotoxicity against porcine IPEC-J2 cells assessed as cell survival rate at 64 uM measured after 8 hrs by MTT assay relative to control; assay type: toxicity, cell-based, Sus scrofa; settings: pig, read-out: Activity
Staphylococcus aureus [18] = assay: Antimicrobial activity against Methicillin-resistant Staphylococcus aureus 43300 assessed as absence bacterial growth measured after 18 to 24 hrs incubation by NCCLS method; assay type: functional; settings: time 18-24 hrs
Staphylococcus aureus [19] = assay: Antimicrobial activity against Staphylococcus aureus 29213 assessed as bacterial killing measured after 16 hrs incubation; assay type: functional
Listeria monocytogenes [20] = assay: Antimicrobial activity against Listeria monocytogenes 1.10753 assessed as absence bacterial growth measured after 18 to 24 hrs incubation by NCCLS method; assay type: functional; settings: time 18-24 hrs
Staphylococcus aureus [21] = assay: Antimicrobial activity against Methicillin-resistant Staphylococcus aureus 43300 assessed as bacterial killing measured after 16 hrs incubation; assay type: functional
Escherichia coli [22] = assay: Antimicrobial activity against Escherichia coli 25922 assessed as absence bacterial growth measured after 18 to 24 hrs incubation in presence of ZnCl2 by NCCLS method; assay type: functional; settings: time 18-24 hrs
Escherichia coli [23] = assay: Antimicrobial activity against Escherichia coli K88 assessed as bacterial killing measured after 16 hrs incubation; assay type: functional
[24] = Cytotoxicity against porcine IPEC-J2 cells assessed as cell survival rate measured after 8 hrs by MTT assay; assay type: toxicity, cell-based, Sus scrofa; settings: pig
[25] = Hemolytic activity in human RBC at effective concentration at 128 uM measured after 1 hr by microplate reader relative to control; assay type: toxicity, cell-based, Erythrocyte; settings: human red blood cells (erythrocytes), read-out: Activity
Salmonella typhimurium [26] = assay: Antimicrobial activity against Salmonella typhimurium C7731 assessed as bacterial killing measured after 16 hrs incubation; assay type: functional, Salmonella enterica subsp. enterica serovar Typhimurium; settings: Salmonella enterica
Bacillus cereus [27] = assay: Antimicrobial activity against Bacillus cereus 1.932 assessed as absence bacterial growth measured after 18 to 24 hrs incubation by NCCLS method; assay type: functional; settings: time 18-24 hrs
Escherichia coli [28] = assay: Antimicrobial activity against Escherichia coli K88 assessed as absence bacterial growth measured after 18 to 24 hrs incubation by NCCLS method; assay type: functional; settings: time 18-24 hrs
Escherichia coli [29] = assay: Antimicrobial activity against Escherichia coli 25922 assessed as absence bacterial growth measured after 18 to 24 hrs incubation in presence of MgCl2 by NCCLS method; assay type: functional; settings: time 18-24 hrs
[30] = Cytotoxicity against human HEK-293T cells assessed as cell survival rate measured after 8 hrs by MTT assay; assay type: toxicity, cell-based
Escherichia coli [31] = assay: Antimicrobial activity against Escherichia coli 25922 assessed as absence bacterial growth measured after 18 to 24 hrs incubation in presence of NaCl by NCCLS method; assay type: functional; settings: time 18-24 hrs
Salmonella typhimurium [32] = assay: Antimicrobial activity against Salmonella typhimurium 14028 assessed as absence bacterial growth measured after 18 to 24 hrs incubation by NCCLS method; assay type: functional, Salmonella enterica subsp. enterica serovar Typhimurium; settings: Salmonella enterica, time 18-24 hrs
Pseudomonas aeruginosa [33] = assay: Antimicrobial activity against Pseudomonas aeruginosa 27853 assessed as bacterial killing measured after 16 hrs incubation; assay type: functional
Salmonella typhimurium [34] = assay: Antimicrobial activity against Salmonella typhimurium C7731 assessed as absence bacterial growth measured after 18 to 24 hrs incubation by NCCLS method; assay type: functional, Salmonella enterica subsp. enterica serovar Typhimurium; settings: Salmonella enterica, time 18-24 hrs
Escherichia coli [35] = assay: Antimicrobial activity against Escherichia coli 25922 assessed as absence bacterial growth measured after 18 to 24 hrs incubation in presence of 25% serum by NCCLS method; assay type: functional; settings: time 18-24 hrs
Staphylococcus aureus [36] = assay: Antimicrobial activity against Staphylococcus aureus 29213 assessed as absence bacterial growth measured after 18 to 24 hrs incubation by NCCLS method; assay type: functional; settings: time 18-24 hrs
Escherichia coli [37] = assay: Antimicrobial activity against Escherichia coli 25922 assessed as absence bacterial growth measured after 18 to 24 hrs incubation in presence of 50% serum by NCCLS method; assay type: functional; settings: time 18-24 hrs
Staphylococcus aureus [38] = assay: Antimicrobial activity against Staphylococcus aureus 25923 assessed as bacterial killing measured after 16 hrs incubation; assay type: functional
Escherichia coli [39] = assay: Antimicrobial activity against Escherichia coli 25922 assessed as absence bacterial growth measured after 18 to 24 hrs incubation in presence of KCl by NCCLS method; assay type: functional; settings: time 18-24 hrs
[40] = Cytotoxicity against mouse RAW264.7 cells assessed as cell survival rate at 32 to 64 uM measured after 8 hrs by MTT assay relative to control; assay type: toxicity, cell-based; settings: dose 32-64 µM, read-out: Activity
[41] = test system: Staphylococcus epidermidis; assay: Antimicrobial activity against Staphylococcus epidermidis 12228 assessed as bacterial killing measured after 16 hrs incubation; assay type: functional
Bacillus cereus [42] = assay: Antimicrobial activity against Bacillus cereus 1.932 assessed as bacterial killing measured after 16 hrs incubation; assay type: functional
Escherichia coli [43] = assay: Antimicrobial activity against Escherichia coli 25922 assessed as absence bacterial growth measured after 18 to 24 hrs incubation by NCCLS method; assay type: functional; settings: time 18-24 hrs
[44] = Antimicrobial activity against Salmonella pullorum C7913 assessed as absence bacterial growth measured after 18 to 24 hrs incubation by NCCLS method; assay type: functional, Salmonella enterica subsp. enterica serovar Pullorum; settings: Salmonella enterica, time 18-24 hrs

H-GKLWLKGGKLWLKGAKLWLKG-NH2
HC10 (Erythrocyte): > 128 µM | MIC (Acinetobacter baumannii [1]): 2 µM | IC50 at 8 h [2]: > 64 µM | MBC (Escherichia coli [3]): 2 µM | MIC (Enterococcus faecalis [4]): 4 µM | MBC [5]: 2 µM | MIC (Escherichia coli [6]): 2 µM | MBC (Enterococcus faecalis [7]): 4 µM | MBC (Listeria monocytogenes [8]): > 32 µM | MIC (Escherichia coli [9]): 2 µM | MBC (Acinetobacter baumannii [10]): 2 µM | MIC (Escherichia coli [11]): 32 µM | MIC (Pseudomonas aeruginosa [12]): 4 µM | viability at 8 h, 64 µM [13]: > 80% | MIC (Staphylococcus aureus [14]): 4 µM | MBC (Salmonella typhimurium [15]): 4 µM | MIC [16]: 4 µM | viability at 8 h, 64 µM [17]: > 80% | MIC (Staphylococcus aureus [18]): 2 µM | MBC (Staphylococcus aureus [19]): 4 µM | MIC (Listeria monocytogenes [20]): > 32 µM | MBC (Staphylococcus aureus [21]): 4 µM | MIC (Escherichia coli [22]): 2 µM | MBC (Escherichia coli [23]): 1 µM | IC50 at 8 h [24]: > 64 µM | hemolysis at 1 h, 128 µM [25]: < 10% | MBC (Salmonella typhimurium [26]): 8 µM | MIC (Bacillus cereus [27]): 4 µM | MIC (Escherichia coli [28]): 1 µM | MIC (Escherichia coli [29]): 8 µM | IC50 at 8 h [30]: > 64 µM | MIC (Escherichia coli [31]): 16 µM | MIC (Salmonella typhimurium [32]): 4 µM | MBC (Pseudomonas aeruginosa [33]): 8 µM | MIC (Salmonella typhimurium [34]): 4 µM | MIC (Escherichia coli [35]): > 32 µM | MIC (Staphylococcus aureus [36]): 4 µM | MIC (Escherichia coli [37]): > 32 µM | MBC (Staphylococcus aureus [38]): 4 µM | MIC (Escherichia coli [39]): 2 µM | viability at 8 h, up to 64 µM [40]: 60% | MBC [41]: 4 µM | MBC (Bacillus cereus [42]): 4 µM | MIC (Escherichia coli [43]): 2 µM | MIC [44]: 1 µM

H-GKLWLKGAKLWLKGGKLWLKG-NH2
HC10 (Erythrocyte): > 128 µM | MIC (Acinetobacter baumannii [1]): 4 µM | IC50 at 8 h [2]: > 64 µM | MBC (Escherichia coli [3]): 2 µM | MIC (Enterococcus faecalis [4]): 16 µM | MBC [5]: 2 µM | MIC (Escherichia coli [6]): 2 µM | MBC (Enterococcus faecalis [7]): 16 µM | MBC (Listeria monocytogenes [8]): > 32 µM | MIC (Escherichia coli [9]): 2 µM | MBC (Acinetobacter baumannii [10]): 4 µM | MIC (Escherichia coli [11]): 32 µM | MIC (Pseudomonas aeruginosa [12]): 4 µM | viability at 8 h, 64 µM [13]: < 50% | MIC (Staphylococcus aureus [14]): 8 µM | MBC (Salmonella typhimurium [15]): 8 µM | MIC [16]: 8 µM | viability at 8 h, 64 µM [17]: < 50% | MIC (Staphylococcus aureus [18]): 4 µM | MBC (Staphylococcus aureus [19]): 8 µM | MIC (Listeria monocytogenes [20]): > 32 µM | MBC (Staphylococcus aureus [21]): 8 µM | MIC (Escherichia coli [22]): 1 µM | MBC (Escherichia coli [23]): 1 µM | IC50 at 8 h [24]: > 64 µM | hemolysis at 1 h, 128 µM [25]: < 10% | MBC (Salmonella typhimurium [26]): 8 µM | MIC (Bacillus cereus [27]): 2 µM | MIC (Escherichia coli [28]): 1 µM | MIC (Escherichia coli [29]): 8 µM | IC50 at 8 h [30]: > 64 µM | MIC (Escherichia coli [31]): 16 µM | MIC (Salmonella typhimurium [32]): 2 µM | MBC (Pseudomonas aeruginosa [33]): 8 µM | MIC (Salmonella typhimurium [34]): 4 µM | MIC (Escherichia coli [35]): > 32 µM | MIC (Staphylococcus aureus [36]): 8 µM | MIC (Escherichia coli [37]): > 32 µM | MBC (Staphylococcus aureus [38]): 8 µM | MIC (Escherichia coli [39]): 2 µM | viability at 8 h, up to 64 µM [40]: 60% | MBC [41]: 8 µM | MBC (Bacillus cereus [42]): 2 µM | MIC (Escherichia coli [43]): 2 µM | MIC [44]: 2 µM
